The target of this assay is Recombinant Human Poly(ADP-Ribose) Polymerase (PARP), PARP-1 (Homo sapiens (Human), UniProt P09874). To be noted: read-out: PARP-1 (Ki).
Where [1] appears, read: Table 1, text calls the values EC50s.

Read-outs that look alike come from different tables or passages of the source.

Sequence of Recombinant Human Poly(ADP-Ribose) Polymerase (PARP), PARP-1 (P09874 whole entry): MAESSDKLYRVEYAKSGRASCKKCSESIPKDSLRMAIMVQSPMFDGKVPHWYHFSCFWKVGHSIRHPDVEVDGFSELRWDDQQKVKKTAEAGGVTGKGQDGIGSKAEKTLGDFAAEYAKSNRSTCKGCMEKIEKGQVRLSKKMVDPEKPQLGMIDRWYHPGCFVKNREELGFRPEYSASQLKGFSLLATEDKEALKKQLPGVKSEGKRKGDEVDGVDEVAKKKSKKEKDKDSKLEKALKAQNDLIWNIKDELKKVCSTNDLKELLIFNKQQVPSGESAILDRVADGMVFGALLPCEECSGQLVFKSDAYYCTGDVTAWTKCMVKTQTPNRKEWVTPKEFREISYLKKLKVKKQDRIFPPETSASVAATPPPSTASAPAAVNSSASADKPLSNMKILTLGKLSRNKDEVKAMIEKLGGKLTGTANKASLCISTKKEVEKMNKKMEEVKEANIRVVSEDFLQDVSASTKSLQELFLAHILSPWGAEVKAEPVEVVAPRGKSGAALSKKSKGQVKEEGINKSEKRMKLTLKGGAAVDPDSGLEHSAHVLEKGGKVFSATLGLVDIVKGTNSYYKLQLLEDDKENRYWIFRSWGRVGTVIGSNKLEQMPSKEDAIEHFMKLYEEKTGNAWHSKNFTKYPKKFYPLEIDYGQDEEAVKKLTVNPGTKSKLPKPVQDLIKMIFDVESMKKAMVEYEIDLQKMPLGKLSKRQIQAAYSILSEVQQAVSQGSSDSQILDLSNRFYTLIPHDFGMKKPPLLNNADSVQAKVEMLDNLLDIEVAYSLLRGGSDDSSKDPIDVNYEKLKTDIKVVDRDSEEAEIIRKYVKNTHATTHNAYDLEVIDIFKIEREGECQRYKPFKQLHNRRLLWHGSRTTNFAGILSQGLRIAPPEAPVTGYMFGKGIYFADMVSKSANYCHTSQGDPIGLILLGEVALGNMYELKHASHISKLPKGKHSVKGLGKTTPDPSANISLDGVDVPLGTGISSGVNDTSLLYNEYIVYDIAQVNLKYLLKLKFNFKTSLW

In general, Ki refers to a measure of affinity in units of concentration, obtained from inhibition or displacement. For `O=C(Nc1cccc(Cc2n[nH]c(=O)c3c2CCCC3)c1)c1cncs1` [Example 206, N-(3-((4-oxo-3,4,5,6,7,8-hexahydrophthalazin-1-yl)methyl)phenyl)-1,3-thiazole-5-carboxamide], the Ki under setting [1] turned out to be 18 nM.
As for `CCN(CC)C(=O)C1CCCN(C(=O)c2cccc(Cc3n[nH]c(=O)c4c3CCCC4)c2)C1` (centres unmarked), the Ki (Table 3, H analogs versus para-F analogs) came to 27 nM.
`O=C1C2CCCCC2C(=O)N1c1cc(Cc2n[nH]c(=O)c3c2CCCC3)ccc1F` (centres unmarked) [Example 298, 2-(2-fluoro-5-((4-oxo-3,4,5,6,7,8-hexahydrophthalazin-1-yl)methyl)phenyl)hexahydro-1H-isoindole-1,3(2H)-dione]: the Ki under setting [1] came out at 2 nM.
On to `COc1cccc(CCNC(=O)c2cccc(Cc3n[nH]c(=O)c4c3CCCC4)c2)c1` [Example 383, N-(2-(3-methoxyphenyl)ethyl)-3-((4-oxo-3,4,5,6,7,8-hexahydrophthalazin-1-yl)methyl)benzamide], for which the Ki under setting [1] was 44 nM.
`CNC(=O)c1cccc(Cc2n[nH]c(=O)c3c2CCCC3)n1` [Example 80, N-methyl-6-((4-oxo-3,4,5,6,7,8-hexahydrophthalazin-1-yl)methyl)pyridine-2-carboxamide]: the Ki under setting [1] is 47 nM.
For the compound `CN(C(=O)c1cc(Cc2n[nH]c(=O)c3c2NCCC3)ccc1F)C1CCN(C(=O)c2ccncc2)CC1` [Example 712, 2-fluoro-N-(1-isonicotinoylpiperidin-4-yl)-N-methyl-5-[(5-oxo-1,2,3,4,5,6-hexahydropyrido[2,3-d]pyridazin-8-yl)methyl]benzamide], under setting [1], the Ki came out at 4 nM.
`CN(C)CCCN1CCCN(C(=O)c2cc(Cc3n[nH]c(=O)c4c3NCCC4)ccc2F)C1` [Example 604, 8-(3-{[3-[3-(dimethylamino)propyl]tetrahydropyrimidin-1(2H)-yl]carbonyl}-4-fluorobenzyl)-2,3,4,6-tetrahydropyrido[2,3-d]pyridazin-5(1H)-one]: under setting [1], the Ki amounted to 15 nM.
Regarding `O=C(Nc1cccc(Cc2n[nH]c(=O)c3c2CCCC3)c1)C1(c2ccccc2)CC1` [Example 145, N-(3-((4-oxo-3,4,5,6,7,8-hexahydrophthalazin-1-yl)methyl)phenyl)-1-phenylcyclopropanecarboxamide], under setting [1], the Ki turned out to be 57 nM.
For `O=C(c1cc(Cc2n[nH]c(=O)c3c2CCCC3)ccc1F)N1CCN(Cc2cccc(Cl)c2)CC1` [Example 514, 4-(3-{[4-(3-chlorobenzyl)piperazin-1-yl]carbonyl}-4-fluorobenzyl)-5,6,7,8-tetrahydrophthalazin-1(2H)-one], the Ki under setting [1] was found to be 9 nM.
Consider `O=C(NC1CCN(C(=O)c2ccccn2)CC1)c1cc(Cc2n[nH]c(=O)c3c2NCCC3)ccc1F` [Example 736, 2-fluoro-5-[(5-oxo-1,2,3,4,5,6-hexahydropyrido[2,3-d]pyridazin-8-yl)methyl]-N-[1-(pyridin-2-ylcarbonyl)piperidin-4-yl]benzamide], for which the Ki under setting [1] amounted to 4 nM.
Still for that read-out and setting: next, `Cc1cnc(C(=O)Nc2cccc(Cc3n[nH]c(=O)c4c3CCCC4)c2)cn1` [Example 217, 5-methyl-N-(3-((4-oxo-3,4,5,6,7,8-hexahydrophthalazin-1-yl)methyl)phenyl)pyrazine-2-carboxamide]: 5 nM; `CCN(CCNC(=O)OC(C)(C)C)C(=O)c1cc(Cc2n[nH]c(=O)c3c2CCCC3)ccc1F` [Example 711, tert-butyl 2-(ethyl{2-fluoro-5-[(4-oxo-3,4,5,6,7,8-hexahydrophthalazin-1-yl)methyl]benzoyl}amino)ethylcarbamate]: 3 nM.
Still for that read-out and setting: next, `CCOc1cc(CCNC(=O)c2cccc(Cc3n[nH]c(=O)c4c3CCCC4)c2)ccc1OC` [Example 400, N-(2-(3-ethoxy-4-methoxyphenyl)ethyl)-3-((4-oxo-3,4,5,6,7,8-hexahydrophthalazin-1-yl)methyl)benzamide]: 22 nM.
As to `Cc1ccc(F)cc1C(=O)Nc1cccc(Cc2n[nH]c(=O)c3c2CCCC3)c1` [Example 179, 5-fluoro-2-methyl-N-(3-((4-oxo-3,4,5,6,7,8-hexahydrophthalazin-1-yl)methyl)phenyl)benzamide], the Ki under setting [1] is 238 nM.
With `NCC(=O)Nc1cccc(Cc2n[nH]c(=O)c3c2CCCC3)c1` [Example 111], the Ki under setting [1] is 12 nM.
Same read-out and setting: then `C[C@@H]1CN(C(=O)c2ccccc2)CCN1C(=O)c1cc(Cc2n[nH]c(=O)c3c2CCCC3)ccc1F` [Example 668, 4-(3-{[(2R)-4-benzoyl-2-methylpiperazin-1-yl]carbonyl}-4-fluorobenzyl)-5,6,7,8-tetrahydrophthalazin-1(2H)-one], with 1.9 nM.
Turning to `CN(C(=O)c1cc(Cc2n[nH]c(=O)c3c2NCCC3)ccc1F)C1CCN(C(=O)c2cccnc2)CC1` [Example 710, 2-fluoro-N-methyl-5-[(5-oxo-1,2,3,4,5,6-hexahydropyrido[2,3-d]pyridazin-8-yl)methyl]-N-[1-(pyridin-3-ylcarbonyl)piperidin-4-yl]benzamide], the Ki under setting [1] came to 7 nM.
For `CC(=O)Nc1ccc(C(=O)Nc2cccc(Cc3n[nH]c(=O)c4c3CCCC4)c2)cc1` [Example 234, 4-(acetylamino)-N-(3-((4-oxo-3,4,5,6,7,8-hexahydrophthalazin-1-yl)methyl)phenyl)benzamide], the inhibition constant (Ki) under setting [1] is 57 nM.
On the same count and under the same terms, then `O=C(c1cc(Cc2n[nH]c(=O)c3c2CCCC3)ccc1F)N1CCN(C(=O)[C@@H]2CSCN2)CC1` [Example 727, 4-[4-fluoro-3-({4-[(4R)-1,3-thiazolidin-4-ylcarbonyl]piperazin-1-yl}carbonyl)benzyl]-5,6,7,8-tetrahydrophthalazin-1(2H)-one], with 1.4 nM; and `CC1(C(=O)N2CCCN(C(=O)c3cc(Cc4n[nH]c(=O)c5c4CCCC5)ccc3F)CC2)CC1` [Example 635, 4-[4-fluoro-3-({4-[(1-methylcyclopropyl)carbonyl]-1,4-diazepan-1-yl}carbonyl)benzyl]-5,6,7,8-tetrahydrophthalazin-1(2H)-one], with 1.8 nM; and `O=C(c1cccc(Cc2n[nH]c(=O)c3c2CCCC3)c1)N1CCN(c2ncccn2)CC1` [Example 442, 4-(3-((4-pyrimidin-2-ylpiperazin-1-yl)carbonyl)benzyl)-5,6,7,8-tetrahydrophthalazin-1(2H)-one], with 0.8 nM.
Consider `O=c1[nH]nc(Cc2cccc(NS(=O)(=O)c3cccnc3)c2)c2c1CCCC2` [Example 117, N-(3-((4-oxo-3,4,5,6,7,8-hexahydrophthalazin-1-yl)methyl)phenyl)pyridine-3-sulfonamide], for which, under setting [1], the Ki turned out to be 477 nM.
Regarding `O=C1CCN1c1cc(Cc2n[nH]c(=O)c3c2CCCC3)ccn1` [Example 101, 4-((2-(2-oxoazetidin-1-yl)pyridin-4-yl)methyl)-5,6,7,8-tetrahydrophthalazin-1(2H)-one], under setting [1], the Ki worked out at 21 nM.
On to `O=C(NCCc1ccc2c(c1)OCO2)c1cccc(Cc2n[nH]c(=O)c3c2CCCC3)c1` [Example 407, N-(2-(1,3-benzodioxol-5-yl)ethyl)-3-((4-oxo-3,4,5,6,7,8-hexahydrophthalazin-1-yl)methyl)benzamide], for which the Ki under setting [1] turned out to be 22 nM.
Regarding `O=c1[nH]nc(Cc2cccs2)c2c1CCCC2` [Example 91, 4-(thien-2-ylmethyl)-5,6,7,8-tetrahydrophthalazin-1(2H)-one], under setting [1], the Ki came out at 70 nM.
On the same count and under the same terms, then `O=C(c1ccncc1)N1CCN(C(=O)c2cc(Cc3n[nH]c(=O)c4c3CCCC4)ccc2F)CC1` [Example 720, 4-{4-fluoro-3-[(4-isonicotinoylpiperazin-1-yl)carbonyl]benzyl}-5,6,7,8-tetrahydrophthalazin-1(2H)-one], with 1.4 nM; and `O=C(NCCCN1CCOCC1)c1cccc(Cc2n[nH]c(=O)c3c2CCCC3)c1` [Example 317, N-(3-morpholin-4-ylpropyl)-3-((4-oxo-3,4,5,6,7,8-hexahydrophthalazin-1-yl)methyl)benzamide], with 25 nM.
Consider `O=C(NCCc1c[nH]c2ccccc12)c1cccc(Cc2n[nH]c(=O)c3c2CCCC3)c1` [Example 318, N-(2-(1H-indol-3-yl)ethyl)-3-((4-oxo-3,4,5,6,7,8-hexahydrophthalazin-1-yl)methyl)benzamide], for which the Ki under setting [1] is 28 nM.
On the same count and under the same terms, next, `CN(C)S(=O)(=O)Nc1cccc(Cc2n[nH]c(=O)c3c2CCCC3)c1` [Example 97, N,N-dimethyl-N′-(3-((4-oxo-3,4,5,6,7,8-hexahydrophthalazin-1-yl)methyl)phenyl)sulfamide]: 390 nM; `O=C(c1cncnc1)N1CCN(C(=O)c2cc(Cc3n[nH]c(=O)c4c3NCCC4)ccc2F)CC1` [Example 664, 8-(4-fluoro-3-{[4-(pyrimidin-5-ylcarbonyl)piperazin-1-yl]carbonyl}benzyl)-2,3,4,6-tetrahydropyrido[2,3-d]pyridazin-5(1H)-one]: 1.3 nM; `O=C(c1cscn1)N1CCCN(C(=O)c2cc(Cc3n[nH]c(=O)c4c3NCCC4)ccc2F)CC1` [Example 703, 8-(4-fluoro-3-{[4-(1,3-thiazol-4-ylcarbonyl)-1,4-diazepan-1-yl]carbonyl}benzyl)-2,3,4,6-tetrahydropyrido[2,3-d]pyridazin-5(1H)-one]: 2.3 nM.
With `CC(Cc1n[nH]c(=O)c2c1CCCC2)c1ccc(F)c(-c2cccc(C(=O)N3CCOCC3)c2)c1` (centres unmarked) [Example 275, 4-(2-(6-fluoro-3′-(morpholin-4-ylcarbonyl)-1,1′-biphenyl-3-yl)propyl)-5,6,7,8-tetrahydrophthalazin-1(2H)-one], the inhibition constant Ki under setting [1] stood at 471 nM.
Take `O=C(c1cccc(Cc2n[nH]c(=O)c3c2CCCC3)c1)N1CCC(c2ccccc2)CC1` [Example 61, 4-(3-((4-phenylpiperidin-1-yl)carbonyl)benzyl)-5,6,7,8-tetrahydrophthalazin-1(2H)-one]: the Ki under setting [1] was found to be 6 nM.
As to `CN(C)C(=O)c1ccc(-c2cc(Cc3n[nH]c(=O)c4c3CCCC4)ccc2F)cc1` [Example 253, 2′-fluoro-N,N-dimethyl-5′-((4-oxo-3,4,5,6,7,8-hexahydrophthalazin-1-yl)methyl)-1,1′-biphenyl-4-carboxamide], under setting [1], the Ki stood at 229 nM.
Regarding `Cc1ccc(C)c(CCNC(=O)c2cccc(Cc3n[nH]c(=O)c4c3CCCC4)c2)c1` [Example 399, N-(2-(2,5-dimethylphenyl)ethyl)-3-((4-oxo-3,4,5,6,7,8-hexahydrophthalazin-1-yl)methyl)benzamide], the Ki under setting [1] turned out to be 65 nM.
